Results published in publication PMC11984388, “A brain-accessible peptide modulates stroke inflammatory response and neurotoxicity by targeting BDNF-receptor TrkB-T1 specific interactome” (Theranostics, 2025).

Tested on: neurons of primary cortical cultures
Test: Neuronal viability (MTT) in non-stimulated cultures
Format: cell-based, rat
Protocol: Cultures were prepared from cerebral cortex of 18-day-old Wistar rat embryos, both genders indistinctly included. Unless otherwise indicated, glial growth was inhibited after 7 days in vitro (DIVs), experimental treatments taking place after 12 DIVs. These cultures present a high percentage of neurons, combined with glial cells, mostly astrocytes. To induce excitotoxicity, cultures were incubated with NMDA (100 µM) and its co-agonist glycine (10 µM), herein denoted simply as NMDA, which induce a strong excitotoxic response in mature neurons but have no effect on astrocyte viability,[47]. When indicated, cultures were preincubated for 30 min with indicated concentrations of Tat-derived CPPs before NMDA treatment, peptides being kept in the medium along treatment. Total cell or neuronal viability assessment was established by the thiazolyl blue formazan (MTT) reduction assay. Further details are provided as Supplementary material. […]
skull for 10 min. Br ain injury encompas se s damage to vas cular endothelium, platelet activation, and subs equent microvascula r thrombotic occlus ion of the irradiate d region. The ar eas underneath this ste reotaxic position that result irradiate d ar e the prima ry motor cortex and the prima ry soma tos ens ory cortex (hindlimb and forelimb). Once completed surgery, the incision was sutured, and mice were allowed to recover. […]

Ac-YGRKKRRQRRRPPFVLFHKIPLDG-NH2 [TT1Ct]
Intrinsic toxicity (concentrations lower than 25 µM): not intrinsically toxic | Toxicity for non-stimulated cultures (higher dose employed (25 µM)): toxic
